# Results published in PMC3389674, “Comparison of Soluble Guanylate Cyclase Stimulators and Activators in Models of Cardiovascular Disease Associated with Oxidative Stress” (Frontiers in Pharmacology, 2012).
# Molecular target: T1, rat sGC (Rattus norvegicus, UniProt P20595)
# T1 sequence (P20595 1-619): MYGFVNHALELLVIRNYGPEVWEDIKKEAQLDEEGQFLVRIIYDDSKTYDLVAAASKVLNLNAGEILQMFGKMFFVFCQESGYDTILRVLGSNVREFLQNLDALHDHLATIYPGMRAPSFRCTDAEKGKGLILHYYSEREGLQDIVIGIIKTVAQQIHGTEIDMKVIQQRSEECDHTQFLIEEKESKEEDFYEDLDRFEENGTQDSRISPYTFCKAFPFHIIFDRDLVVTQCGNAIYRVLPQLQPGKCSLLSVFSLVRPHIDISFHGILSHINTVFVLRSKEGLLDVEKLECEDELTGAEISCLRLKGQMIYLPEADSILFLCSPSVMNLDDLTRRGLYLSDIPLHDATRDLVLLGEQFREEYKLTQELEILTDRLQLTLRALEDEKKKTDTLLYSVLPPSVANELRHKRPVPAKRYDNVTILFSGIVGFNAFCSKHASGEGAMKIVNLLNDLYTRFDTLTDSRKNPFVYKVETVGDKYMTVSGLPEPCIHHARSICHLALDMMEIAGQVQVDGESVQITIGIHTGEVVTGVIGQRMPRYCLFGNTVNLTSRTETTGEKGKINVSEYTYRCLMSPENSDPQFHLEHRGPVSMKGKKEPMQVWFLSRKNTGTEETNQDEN
# T1 sequence (P19686 1-690 partner): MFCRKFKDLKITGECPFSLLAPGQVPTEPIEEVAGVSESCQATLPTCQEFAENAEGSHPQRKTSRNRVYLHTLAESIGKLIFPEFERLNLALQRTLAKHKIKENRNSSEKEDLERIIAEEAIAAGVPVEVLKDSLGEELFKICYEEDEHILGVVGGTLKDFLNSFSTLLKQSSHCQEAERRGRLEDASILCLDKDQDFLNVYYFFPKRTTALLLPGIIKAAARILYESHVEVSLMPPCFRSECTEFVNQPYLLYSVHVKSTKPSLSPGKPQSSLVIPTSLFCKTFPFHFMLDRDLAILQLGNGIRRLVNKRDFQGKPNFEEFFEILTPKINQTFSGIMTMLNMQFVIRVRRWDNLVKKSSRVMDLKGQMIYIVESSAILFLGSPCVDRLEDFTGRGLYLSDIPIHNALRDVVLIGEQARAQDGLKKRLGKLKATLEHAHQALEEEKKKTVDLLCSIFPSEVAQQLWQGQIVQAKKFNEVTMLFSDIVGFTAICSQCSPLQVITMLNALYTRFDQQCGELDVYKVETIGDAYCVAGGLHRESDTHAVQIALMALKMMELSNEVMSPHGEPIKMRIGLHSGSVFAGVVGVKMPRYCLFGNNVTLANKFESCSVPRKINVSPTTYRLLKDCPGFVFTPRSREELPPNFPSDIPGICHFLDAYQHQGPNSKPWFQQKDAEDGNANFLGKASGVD
# Test: primary cell-free rat sGC enzyme assay (cGMP formation)
# Type: biochemical
# Conditions: data not shown
structure (smiles),measurement,value
"Cc1cc(-c2ccc(OC(F)(F)F)cc2)ccc1COc1ccccc1-c1cccc(-n2ncc(C(=O)O)c2C(F)(F)F)n1 [GSK2181236A, 1-(6-{2-[({3-methyl-4′-[(trifluoromethyl)oxy]-4-biphenylyl}methyl)oxy]phenyl}-2-pyridinyl)-5-(trifluoromethyl)-1H-pyrazole-4-carboxylic acid]",EC50,27 nM
